Assay results reported in publication PMC6222718, “Ethylenediamine Derived Carboxamides of Betulinic and Ursolic Acid as Potential Cytotoxic Agents” (Molecules : A Journal of Synthetic Chemistry and Natural …, 2018).

How the values were obtained:
518A2 (melanoma) = assay: SRB cytotoxicity assay, 518A2; format: cell-based, human; conditions: for EC50: Homo sapiens, SRB assay, 96 h of treatment, 518A2; for Selectivity index (SI) 518A2: SI = EC50 (NIH 3T3)/EC50 (518A2)
Protocol: (§1) The cytotoxicity of ursolic and betulinic carboxamides 3–30 was determined in sulforhodamine B (SRB) assays.
(§2) The cell lines used were human cancer cell lines: 518A2 (melanoma), A2780 (ovarian carcinoma), HT29 (colon adenocarcinoma), MCF-7 (breast adenocarcinoma), 8505C (thyroid carcinoma) and non-malignant mouse fibroblasts NIH 3T3. Cultures were maintained as monolayers in RPMI 1640 medium with L-glutamine (Capricorn Scientific GmbH, Ebsdorfergrund, Germany) supplemented with 10% heat inactivated fetal bovineserum (Sigma-Aldrich Chemie GmbH, Steinheim, Germany) and penicillin/streptomycin (Capricorn Scientific GmbH, Ebsdorfergrund, Germany) at 37 °C in a humidified atmosphere with 5% CO2.
(§3) The cytotoxicity of the compounds was evaluated using the sulforhodamine-B (Kiton-Red S, ABCR) micro culture colorimetric assay. Cells were seeded into 96-well plates on day 0 at appropriate cell densities to prevent confluence of the cells during the period of experiment. After 24 h, the cells were treated with 6 different concentrations (1, 3, 7, 12, 20 and 30 µM) minimum. The final concentration of DMSO/DMF never exceeded 0.5%, which was non-toxic to the cells. After a 96 h treatment, the supernatant medium from the 96-well plates was discarded, the cells were fixed with 10% trichloroacetic acid (TCA) and allowed to rest at 4 °C. After 24 h fixation, the cells were washed in a strip washer and dyed with SRB solution (100 µL, 0.4% in 1% acetic acid) for about 20 min. After dying, the plates were washed four times with 1% acetic acid to remove the excess of the dye and allowed to air-dry overnight. Tris base solution (200 µL, 10 mM) was added to each well and absorbance was measured at λ = 570 nm using a 96-well plate reader (Tecan Spectra, Crailsheim, Germany). The EC50 values were averaged from three independent experiments performed each in triplicate calculated from semi logarithmic dose response curves applying a non-linear 4P Hills-slope equation (GraphPad Prism5; variables top and bottom were set to 100 and 0, respectively).

[1] = system: A2780 (ovarian carcinoma); assay: SRB cytotoxicity assay, A2780; format: cell-based, human; conditions: for EC50: Homo sapiens, SRB assay, 96 h of treatment, A2780; for Selectivity index (SI) A2780: SI = EC50 (NIH 3T3)/EC50 (A2780)
Protocol: as §1, §2, §3

[2] = system: HT29 (colon adenocarcinoma); assay: SRB cytotoxicity assay, HT29; format: cell-based, human; conditions: for EC50: Homo sapiens, HT-29, SRB assay, 96 h of treatment, HT29; for Selectivity index (SI) HT29: SI = EC50 (NIH 3T3)/EC50 (HT29)
Protocol: as §1, §2, §3

[3] = system: MCF-7 (breast adenocarcinoma); assay: SRB cytotoxicity assay, MCF-7; format: cell-based, human; conditions: for EC50: Homo sapiens, MCF7, SRB assay, 96 h of treatment, MCF-7; for Selectivity index (SI) MCF-7: SI = EC50 (NIH 3T3)/EC50 (MCF-7)
Protocol: as §1, §2, §3

[4] = system: 8505C (thyroid carcinoma); assay: SRB cytotoxicity assay, 8505C; format: cell-based, human; conditions: for EC50: Homo sapiens, SRB assay, 96 h of treatment, 8505C; for Selectivity index (SI) 8505C: SI = EC50 (NIH 3T3)/EC50 (8505C)
Protocol: as §1, §2, §3

[5] = system: non-malignant mouse fibroblasts NIH 3T3; assay: SRB cytotoxicity assay, NIH 3T3; format: cell-based; conditions: NIH3T3, 96 h of treatment
Protocol: as §1, §2, §3

C=C(C)C1CC[C@]2(C(=O)NCCOCCN)CC[C@]3(C)C(CCC4[C@@]5(C)CC[C@H](O)C(C)(C)C5CC[C@]43C)C12 (stereo partly drawn) [Compound 30, (3β)-N-[2-(2-Aminoethoxy)ethyl]-3-hydroxy-lup-20(29)-en-28-amide]
EC50 (518A2 (melanoma)): 500 ± 40 nM
Selectivity index (SI) 518A2 (518A2 (melanoma)): 0.80
EC50 [1]: 500 ± 40 nM
Selectivity index (SI) A2780 [1]: 0.80
EC50 [2]: 500 ± 70 nM
Selectivity index (SI) HT29 [2]: 0.80
EC50 [3]: 400 ± 200 nM
Selectivity index (SI) MCF-7 [3]: 1.00
EC50 [4]: 200 ± 10 nM
Selectivity index (SI) 8505C [4]: 2.00
EC50 [5]: 400 ± 70 nM
melting point: 182 to 183 °C

C=C(C)C1CC[C@]2(C(=O)NCCOCCN)CC[C@]3(C)C(CCC4[C@@]5(C)CC[C@H](OC(C)=O)C(C)(C)C5CC[C@]43C)C12 (stereo partly drawn) [Compound 23, (3β)-N-[2-(2-Aminoethoxy)ethyl]-3-acetyloxy-lup-20(29)-en-28-amide]
EC50 (518A2 (melanoma)): 1900 ± 10 nM
Selectivity index (SI) 518A2 (518A2 (melanoma)): 0.53
EC50 [1]: 1500 ± 100 nM
Selectivity index (SI) A2780 [1]: 0.67
EC50 [2]: 400 ± 100 nM
Selectivity index (SI) HT29 [2]: 2.50
EC50 [3]: 1400 ± 200 nM
Selectivity index (SI) MCF-7 [3]: 0.71
EC50 [4]: 2200 ± 810 nM
Selectivity index (SI) 8505C [4]: 0.45
EC50 [5]: 1000 ± 100 nM
melting point: 109 to 112 °C

C[C@@H]1CC[C@]2(C(=O)NCCOCCN)CC[C@]3(C)C(=CCC4[C@@]5(C)CC[C@H](O)C(C)(C)C5CC[C@]43C)C2[C@H]1C (stereo partly drawn) [Compound 16]
EC50 (518A2 (melanoma)): 9900 ± 200 nM
Selectivity index (SI) 518A2 (518A2 (melanoma)): 0.76
EC50 [1]: 6500 ± 1400 nM
Selectivity index (SI) A2780 [1]: 1.15
EC50 [2]: 3100 ± 300 nM
Selectivity index (SI) HT29 [2]: 2.42
EC50 [3]: 6300 ± 600 nM
Selectivity index (SI) MCF-7 [3]: 1.19
EC50 [4]: 10600 ± 1100 nM
Selectivity index (SI) 8505C [4]: 0.71
EC50 [5]: 7500 ± 800 nM
melting point: 126 to 129 °C

CC(=O)O[C@H]1CC[C@@]2(C)C(CC[C@]3(C)C2CC=C2C4[C@@H](C)[C@H](C)CC[C@]4(C(=O)NCCN4CCCCC4)CC[C@]23C)C1(C)C (stereo partly drawn) [Compound 6, (3β)-N-(2-Piperidin-1-ylethyl)-3-acetyloxy-urs-12-en-28-amide]
EC50 (518A2 (melanoma)): 12200 ± 300 nM
Selectivity index (SI) 518A2 (518A2 (melanoma)): 0.59
EC50 [1]: 6500 ± 500 nM
Selectivity index (SI) A2780 [1]: 1.11
EC50 [2]: 4200 ± 500 nM
Selectivity index (SI) HT29 [2]: 1.71
EC50 [3]: 6000 ± 900 nM
Selectivity index (SI) MCF-7 [3]: 1.20
EC50 [4]: 15500 ± 2700 nM
Selectivity index (SI) 8505C [4]: 0.46
EC50 [5]: 7200 ± 1200 nM
melting point: 124 to 127 °C

CC(=O)O[C@H]1CC[C@@]2(C)C(CC[C@]3(C)C2CC=C2C4[C@@H](C)[C@H](C)CC[C@]4(C(=O)NCCCCN)CC[C@]23C)C1(C)C (stereo partly drawn) [Compound 8, (3β)-N-(4-Aminobutyl)-3-acetyloxy-urs-12-en-28-amide]
EC50 (518A2 (melanoma)): 2700 ± 100 nM
Selectivity index (SI) 518A2 (518A2 (melanoma)): 0.48
EC50 [1]: 2600 ± 100 nM
Selectivity index (SI) A2780 [1]: 0.50
EC50 [2]: 1700 ± 100 nM
Selectivity index (SI) HT29 [2]: 0.76
EC50 [3]: 1700 ± 100 nM
Selectivity index (SI) MCF-7 [3]: 0.76
EC50 [4]: 3200 ± 10 nM
Selectivity index (SI) 8505C [4]: 0.41
EC50 [5]: 1300 ± 200 nM
melting point: 117 to 120 °C

C=C(C)C1CC[C@]2(C(=O)NCCN3CCCCC3)CC[C@]3(C)C(CCC4[C@@]5(C)CC[C@H](OC(C)=O)C(C)(C)C5CC[C@]43C)C12 (stereo partly drawn) [Compound 20, (3β)-N-(2-Piperidin-1-ylethyl)-3-acetyloxy-lup-20(29)-en-28-amide]
EC50 (518A2 (melanoma)): 3100 ± 300 nM
Selectivity index (SI) 518A2 (518A2 (melanoma)): 0.39
EC50 [1]: 1600 ± 200 nM
Selectivity index (SI) A2780 [1]: 0.75
EC50 [2]: 800 ± 100 nM
Selectivity index (SI) HT29 [2]: 1.50
EC50 [3]: 1500 ± 500 nM
Selectivity index (SI) MCF-7 [3]: 0.80
EC50 [4]: 3000 ± 360 nM
Selectivity index (SI) 8505C [4]: 0.40
EC50 [5]: 1200 ± 200 nM
melting point: 124 to 127 °C

C[C@@H]1CC[C@]2(C(=O)NCCN3CCCC3)CC[C@]3(C)C(=CCC4[C@@]5(C)CC[C@H](O)C(C)(C)C5CC[C@]43C)C2[C@H]1C (stereo partly drawn) [Compound 12, (3β)-N-(2-Pyrrolidin-1-ylethyl)-3-hydroxy-urs-12-en-28-amide]
EC50 (518A2 (melanoma)): 5500 ± 100 nM
Selectivity index (SI) 518A2 (518A2 (melanoma)): 1.13
EC50 [1]: 3300 ± 300 nM
Selectivity index (SI) A2780 [1]: 1.88
EC50 [2]: 2600 ± 300 nM
Selectivity index (SI) HT29 [2]: 2.38
EC50 [3]: 3500 ± 1000 nM
Selectivity index (SI) MCF-7 [3]: 1.77
EC50 [4]: 5700 ± 200 nM
Selectivity index (SI) 8505C [4]: 1.09
EC50 [5]: 6200 ± 400 nM
melting point: 263 to 266 °C (dec.)

CC(=O)O[C@H]1CC[C@@]2(C)C(CC[C@]3(C)C2CC=C2C4[C@@H](C)[C@H](C)CC[C@]4(C(=O)NCCN(C)C)CC[C@]23C)C1(C)C (stereo partly drawn) [Compound 4, (3β)-N-[2-(Dimethylamino)ethyl]-3-acetyloxy-urs-12-en-28-amide]
EC50 (518A2 (melanoma)): 5300 ± 400 nM
Selectivity index (SI) 518A2 (518A2 (melanoma)): 0.70
EC50 [1]: 3600 ± 400 nM
Selectivity index (SI) A2780 [1]: 1.03
EC50 [2]: 3400 ± 300 nM
Selectivity index (SI) HT29 [2]: 1.09
EC50 [3]: 3300 ± 700 nM
Selectivity index (SI) MCF-7 [3]: 1.12
EC50 [4]: 8300 ± 700 nM
Selectivity index (SI) 8505C [4]: 0.45
EC50 [5]: 3700 ± 200 nM
melting point: 121 to 124 °C

CC(=O)O[C@H]1CC[C@@]2(C)C(CC[C@]3(C)C2CC=C2C4[C@@H](C)[C@H](C)CC[C@]4(C(=O)NCCN4CCNCC4)CC[C@]23C)C1(C)C (stereo partly drawn) [Compound 7, (3β)-N-(2-Piperazin-1-ylethyl)-3-acetyloxy-urs-12-en-28-amide]
EC50 (518A2 (melanoma)): 3200 ± 100 nM
Selectivity index (SI) 518A2 (518A2 (melanoma)): 0.69
EC50 [1]: 2400 ± 100 nM
Selectivity index (SI) A2780 [1]: 0.92
EC50 [2]: 1800 ± 200 nM
Selectivity index (SI) HT29 [2]: 1.22
EC50 [3]: 2700 ± 300 nM
Selectivity index (SI) MCF-7 [3]: 0.81
EC50 [4]: 5400 ± 400 nM
Selectivity index (SI) 8505C [4]: 0.41
EC50 [5]: 2200 ± 100 nM
melting point: 145 to 147 °C

C=C(C)C1CC[C@]2(C(=O)NCCN3CCNCC3)CC[C@]3(C)C(CCC4[C@@]5(C)CC[C@H](OC(C)=O)C(C)(C)C5CC[C@]43C)C12 (stereo partly drawn) [Compound 21, (3β)-N-(2-Piperazin-1-ylethyl)-3-acetyloxy-lup-20(29)-en-28-amide]
EC50 (518A2 (melanoma)): 2500 ± 700 nM
Selectivity index (SI) 518A2 (518A2 (melanoma)): 0.40
EC50 [1]: 1500 ± 60 nM
Selectivity index (SI) A2780 [1]: 0.67
EC50 [2]: 600 ± 300 nM
Selectivity index (SI) HT29 [2]: 1.67
EC50 [3]: 1900 ± 100 nM
Selectivity index (SI) MCF-7 [3]: 0.53
EC50 [4]: 1100 ± 90 nM
Selectivity index (SI) 8505C [4]: 0.91
EC50 [5]: 1000 ± 50 nM
melting point: 107 to 110 °C
